This note sets out measurements from PubChem BioAssay (NCI).

Assay in all cases: growth of human tumour cells (NCI), 48 h
In assay [1] the test system is SK-MEL-2 melanoma.
Assay [2] relates to UO-31 renal.
The test system of assay [3] is SN12C renal.
In assay [4] the test system is MDA-N.
Assay [5] relates to SK-MEL-5 melanoma.
Assay [6] concerns UACC-62 melanoma.
The subject of assay [7] is HCT-116 colon.
In assay [8] the test system is SR leukemia.
The subject of assay [9] is CAKI-1 renal.

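1) Cells in 96-well plates. 2) Compound, 48 h, 5 concentrations. 3) Linear interpolation between surrounding doses. 4) Unreached endpoint = highest concentration. TGI is the concentration that stops growth completely.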

As for `CCOc1cc2c(cc1O)/C(=N\N)C[C@@H]1[C@@H]2CC[C@]2(C)[C@@H](O)CC[C@@H]12`, the TGI in assay [1] was 99.5 µM; in [2], above 100 µM; in assay [3] it was above 42.4 µM; in assay [4] it was 4.53 µM; in [5] it was 28 µM; in [6], 41.9 µM. Moreover, the TGI in assay [7] was above 37.8 µM; in assay [8], above 100 µM; in assay [9], 40.6 µM.

Take `O=C1C(N2CCCC2)=CC(=O)c2c(O)c(N3CCCC3)c(Cl)c(O)c21`: the TGI in [1], in [2], in assay [3], in [4], in assay [5] and in assay [6] was above 10 µM each time. Moreover, the TGI in [7], in assay [8] and in [9] was above 10 µM each time.

As for `O=C1c2ccccc2C(=O)N1n1c(Cc2ccccc2)n[nH]c1=O`, the TGI in assay [1], in [2], in assay [3], in assay [4], in [5] and in [6] was above 100 µM throughout. Besides, the TGI in [7], in assay [8] and in [9] was above 100 µM throughout.

As to `c1ccc(C2=NC3(CCCCC3)N(c3nc4ccccc4s3)N2)nc1`, the TGI in assay [1] is 42.6 µM; in assay [2], above 100 µM; in assay [3] it was 69.9 µM; in assay [4], 86.5 µM; in [5] it was 40.6 µM; in [6], above 100 µM. For the same compound, the TGI in [7] is above 100 µM; in assay [8], 26.8 µM; in [9] it was 91.5 µM.

Turning to `CCOC(=O)CCCn1nnc(C(=O)OCC)c1C(=O)OCC`, the TGI in [1], in assay [2], in [3], in [4], in assay [5] and in assay [6] was above 100 µM in each case. For the same compound, the TGI in [7], in assay [8] and in assay [9] was above 100 µM in each case.

On to `CC1(C)O[C@H]2Cn3c(c(C#N)c4ccccc43)[C@H]2O1`, for which the TGI in assay [1], in [2], in assay [3], in assay [4], in [5] and in [6] was above 100 µM each time. The TGI in assay [7], in assay [8] and in assay [9] was above 100 µM throughout.

On to `O=c1c2ccccc2oc2nc3n(c(=O)c12)CCCS3`, for which the TGI in assay [1] was above 100 µM; in [2] it was 29.2 µM; in assay [3], above 100 µM; in assay [4] it was above 100 µM; in assay [5] it was above 100 µM; in assay [6] it was above 100 µM. The TGI in assay [7], in [8] and in assay [9] was above 100 µM in each case.

Consider `C=CCNC(=S)Nc1sc2c(c1C(=O)OCC)CC(C)CC2` (configuration not stated), for which the TGI in assay [1] was 48.4 µM; in assay [2], 56.3 µM; in assay [3], 82.8 µM; in assay [4], above 100 µM; in assay [5] it was 30.7 µM; in [6] it was 46.7 µM. The TGI in assay [7] is 66.3 µM; in [8], 53.6 µM; in assay [9], above 100 µM.

On to `OCC1OC(c2scc3c(=S)nc[nH]c23)C(O)C1O` (configuration not stated), for which the TGI was above 65.6 µM in assay [1]; above 100 µM in [2]; above 100 µM in assay [3]; above 100 µM in assay [4]; above 73.6 µM in [5]; 45.6 µM in assay [6]. The figures for the TGI in assay [7], in assay [8] and in [9] were above 84.3 µM, above 100 µM and 63.3 µM, respectively.

`COc1cccc2c1OC1c3ccccc3OCC1C2` (configuration not stated): the TGI in assay [1], in assay [2], in assay [3], in assay [4], in assay [5] and in assay [6] was above 100 µM in each case. For the same compound, the TGI in assay [7], in assay [8] and in assay [9] was above 100 µM in each case.

Take `O=C1N[C@H]2c3c(Cl)sc(Cl)c3/C(=N/O)[C@H]2O1`: the TGI in assay [1], in assay [2], in assay [3], in assay [4], in assay [5] and in assay [6] was above 100 µM in each case. Moreover, the TGI in assay [7], in assay [8] and in assay [9] was above 100 µM in each case.

On to `CCOC(=O)c1cn(-c2ccccc2)c(=S)n2c1nc1ccccc12`, for which the TGI in [1] is above 100 µM; in [3], above 100 µM; in [4], above 100 µM; in [5], above 89.6 µM; in assay [6], above 100 µM; in assay [7], above 100 µM. The TGI in [8] is 84.6 µM; in assay [9], above 100 µM.
